Results reported in ChEMBL document CHEMBL1201862, “PubChem BioAssay data set” (2004).
The source made the active and inactive calls. Where a SMILES comes first, the peptide text is derived from it. [ ]: non-standard residue; d: D form. The star is where a group is joined. ξ: configuration not given here. ξNMe2Val = CC(C)C(C(=O)*)N(C)C; NMeV = CN[CH](C(=O)O)C(C)C; NHBn = c1ccc(CN*)cc1

Experiments:
[1] = target: T1, Hepatocyte nuclear factor 4-alpha (Homo sapiens, UniProt P41235); format: functional, cell-based;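 further: biochemical luminescence-based dose-response counterscreen measuring inhibition of HNF4 dimerization, run alongside a screen for blockers of ABHD5–perilipin-5 interaction; split luciferase complementation of HNF4 fusion proteins in cell lysate measuring dimerization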
T1 sequence (P41235 whole entry): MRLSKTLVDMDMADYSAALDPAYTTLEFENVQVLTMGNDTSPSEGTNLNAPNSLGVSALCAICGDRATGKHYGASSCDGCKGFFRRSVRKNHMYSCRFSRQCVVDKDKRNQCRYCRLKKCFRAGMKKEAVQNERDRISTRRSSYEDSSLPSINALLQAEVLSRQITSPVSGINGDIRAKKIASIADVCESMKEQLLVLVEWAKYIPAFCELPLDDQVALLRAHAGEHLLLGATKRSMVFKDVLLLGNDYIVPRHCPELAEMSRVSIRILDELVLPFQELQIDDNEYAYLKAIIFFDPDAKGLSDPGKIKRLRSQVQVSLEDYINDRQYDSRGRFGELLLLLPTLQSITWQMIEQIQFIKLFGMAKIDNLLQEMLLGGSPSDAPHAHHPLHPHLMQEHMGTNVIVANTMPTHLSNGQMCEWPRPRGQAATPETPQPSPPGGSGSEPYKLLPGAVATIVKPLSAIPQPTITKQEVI

[2] = target: Beta-galactosidase (Escherichia coli, UniProt Q8VNN2); assay: Dose response counterscreen for EBI2 assay utilizing the enzyme, b-galactosidase.; format: functional
Sequence of Beta-galactosidase (Q8VNN2 whole entry): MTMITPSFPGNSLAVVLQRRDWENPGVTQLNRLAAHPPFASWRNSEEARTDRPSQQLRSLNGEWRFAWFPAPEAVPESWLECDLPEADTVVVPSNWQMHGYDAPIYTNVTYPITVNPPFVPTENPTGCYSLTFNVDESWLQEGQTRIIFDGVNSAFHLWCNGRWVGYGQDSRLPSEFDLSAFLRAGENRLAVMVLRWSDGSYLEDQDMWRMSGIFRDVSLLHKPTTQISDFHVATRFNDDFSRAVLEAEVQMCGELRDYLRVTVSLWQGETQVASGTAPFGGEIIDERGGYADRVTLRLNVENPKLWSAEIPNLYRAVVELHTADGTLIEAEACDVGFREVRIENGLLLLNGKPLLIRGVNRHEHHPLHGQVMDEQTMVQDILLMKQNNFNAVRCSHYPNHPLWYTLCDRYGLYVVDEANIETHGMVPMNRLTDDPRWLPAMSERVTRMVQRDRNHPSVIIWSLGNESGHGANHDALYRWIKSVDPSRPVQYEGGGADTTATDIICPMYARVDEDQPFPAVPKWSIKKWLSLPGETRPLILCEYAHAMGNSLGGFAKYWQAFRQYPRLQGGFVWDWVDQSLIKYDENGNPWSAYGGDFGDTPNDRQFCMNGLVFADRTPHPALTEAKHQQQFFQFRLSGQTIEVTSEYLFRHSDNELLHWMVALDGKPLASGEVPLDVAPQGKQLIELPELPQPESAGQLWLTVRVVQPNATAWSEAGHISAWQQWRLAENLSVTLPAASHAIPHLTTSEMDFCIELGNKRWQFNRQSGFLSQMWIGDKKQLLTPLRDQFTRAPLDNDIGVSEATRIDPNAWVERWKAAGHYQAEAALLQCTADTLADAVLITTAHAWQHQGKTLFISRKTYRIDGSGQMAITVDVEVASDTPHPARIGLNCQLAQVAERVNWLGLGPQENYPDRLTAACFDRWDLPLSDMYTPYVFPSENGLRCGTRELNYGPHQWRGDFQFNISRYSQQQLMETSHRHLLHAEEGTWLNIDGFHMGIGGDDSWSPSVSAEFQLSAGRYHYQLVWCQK

[3] = target: FAD-linked sulfhydryl oxidase ALR (Homo sapiens, UniProt P55789); assay: ALR-catalysed DTT oxidation blockers – biochemical, H2O2 detection, luminescence, cherry-pick, dose response (AID 493248)
Sequence of FAD-linked sulfhydryl oxidase ALR (P55789 whole entry): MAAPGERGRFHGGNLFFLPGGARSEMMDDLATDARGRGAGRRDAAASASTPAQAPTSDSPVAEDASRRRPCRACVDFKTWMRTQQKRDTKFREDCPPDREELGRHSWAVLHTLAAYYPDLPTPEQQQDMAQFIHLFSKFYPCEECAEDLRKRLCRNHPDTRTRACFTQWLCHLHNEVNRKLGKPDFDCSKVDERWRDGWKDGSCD

[4] = target: Genome polyprotein (dengue virus type 2, UniProt P29990); assay: flavivirus cap methylation enzyme inhibition – biochemical, confirmation dose response, primary screen (AID 588689); format: functional
Sequence of Genome polyprotein (P29990 2492-3391 limits assumed): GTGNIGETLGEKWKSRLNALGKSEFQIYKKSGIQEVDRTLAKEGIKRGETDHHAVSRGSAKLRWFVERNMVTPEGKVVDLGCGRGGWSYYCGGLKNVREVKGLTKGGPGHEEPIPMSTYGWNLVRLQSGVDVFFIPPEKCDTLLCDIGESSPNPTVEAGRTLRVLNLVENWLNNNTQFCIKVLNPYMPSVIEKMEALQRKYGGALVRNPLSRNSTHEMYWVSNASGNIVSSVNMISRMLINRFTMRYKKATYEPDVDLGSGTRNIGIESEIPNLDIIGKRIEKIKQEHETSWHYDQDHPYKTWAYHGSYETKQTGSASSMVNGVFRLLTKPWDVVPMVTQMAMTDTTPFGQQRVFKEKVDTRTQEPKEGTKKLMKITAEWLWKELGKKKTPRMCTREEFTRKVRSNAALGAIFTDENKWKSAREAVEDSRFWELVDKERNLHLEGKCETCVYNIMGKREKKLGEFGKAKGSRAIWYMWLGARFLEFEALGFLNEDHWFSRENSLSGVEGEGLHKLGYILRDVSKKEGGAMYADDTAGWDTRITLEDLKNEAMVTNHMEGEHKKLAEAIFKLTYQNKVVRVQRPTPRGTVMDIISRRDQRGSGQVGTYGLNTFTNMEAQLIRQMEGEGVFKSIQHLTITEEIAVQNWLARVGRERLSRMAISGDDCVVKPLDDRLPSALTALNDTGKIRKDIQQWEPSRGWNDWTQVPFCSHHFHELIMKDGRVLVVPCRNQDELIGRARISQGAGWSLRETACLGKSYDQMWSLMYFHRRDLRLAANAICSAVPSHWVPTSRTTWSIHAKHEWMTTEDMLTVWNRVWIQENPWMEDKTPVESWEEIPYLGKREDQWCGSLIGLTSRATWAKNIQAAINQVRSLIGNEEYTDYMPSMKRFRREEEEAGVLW

[5] = target: T2, Long-chain-fatty-acid--AMP ligase FadD28 (Mycobacterium tuberculosis, UniProt P9WQ59); assay: Fluorescence polarization aasay to screen for inhibitors that compete for the binding of FadD28 to a bisubstrate Measured in Biochemical System Using Plate Reader - 2147-01_Inhibitor_Dose_CherryPick_Activity.; format: functional, Mycobacterium tuberculosis H37Rv
T2 sequence (P9WQ59 whole entry): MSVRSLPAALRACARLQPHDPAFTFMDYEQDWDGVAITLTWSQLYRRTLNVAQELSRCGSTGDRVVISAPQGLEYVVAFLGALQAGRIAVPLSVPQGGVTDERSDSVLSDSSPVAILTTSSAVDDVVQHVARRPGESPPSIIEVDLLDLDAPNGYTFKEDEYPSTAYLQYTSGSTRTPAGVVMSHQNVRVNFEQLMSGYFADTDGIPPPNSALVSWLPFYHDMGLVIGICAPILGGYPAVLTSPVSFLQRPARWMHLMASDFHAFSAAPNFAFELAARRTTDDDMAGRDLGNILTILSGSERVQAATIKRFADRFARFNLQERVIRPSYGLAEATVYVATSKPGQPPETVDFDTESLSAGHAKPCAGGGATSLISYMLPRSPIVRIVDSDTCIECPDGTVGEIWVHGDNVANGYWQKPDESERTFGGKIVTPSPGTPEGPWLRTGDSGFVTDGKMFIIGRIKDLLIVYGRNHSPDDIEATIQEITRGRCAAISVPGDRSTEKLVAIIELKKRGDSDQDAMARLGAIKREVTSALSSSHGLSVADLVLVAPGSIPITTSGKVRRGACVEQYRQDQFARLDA

[6] = target: T3, DNA repair and recombination protein RAD54-like (Homo sapiens, UniProt Q92698); assay: RAD54 Holliday junction migration blockers – biochemical, fluorescence, cherry-picked samples, dose series, confirmation (AID 651657); format: functional
T3 sequence (Q92698 whole entry): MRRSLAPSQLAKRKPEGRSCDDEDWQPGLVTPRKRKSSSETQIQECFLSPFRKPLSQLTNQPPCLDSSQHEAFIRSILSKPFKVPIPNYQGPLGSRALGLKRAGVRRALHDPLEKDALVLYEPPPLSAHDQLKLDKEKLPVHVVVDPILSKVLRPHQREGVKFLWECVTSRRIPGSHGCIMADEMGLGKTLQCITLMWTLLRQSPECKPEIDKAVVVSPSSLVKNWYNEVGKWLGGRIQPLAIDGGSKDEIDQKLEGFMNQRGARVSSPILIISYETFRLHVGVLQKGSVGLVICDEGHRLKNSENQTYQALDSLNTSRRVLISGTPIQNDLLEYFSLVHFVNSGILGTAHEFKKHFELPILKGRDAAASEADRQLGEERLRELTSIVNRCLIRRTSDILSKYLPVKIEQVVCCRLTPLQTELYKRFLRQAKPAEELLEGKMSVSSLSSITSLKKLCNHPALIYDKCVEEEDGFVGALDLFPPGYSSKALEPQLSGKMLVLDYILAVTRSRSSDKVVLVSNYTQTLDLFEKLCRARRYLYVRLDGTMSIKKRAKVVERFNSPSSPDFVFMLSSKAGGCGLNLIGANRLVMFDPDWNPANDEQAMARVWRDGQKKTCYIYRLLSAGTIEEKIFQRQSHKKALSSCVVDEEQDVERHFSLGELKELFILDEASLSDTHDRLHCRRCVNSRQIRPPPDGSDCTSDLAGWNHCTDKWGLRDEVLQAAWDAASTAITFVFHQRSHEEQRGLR

[7] = target: T4, DNA repair protein RAD52 homolog (Homo sapiens, UniProt P43351); format: functional, biochemical
T4 sequence (P43351 whole entry): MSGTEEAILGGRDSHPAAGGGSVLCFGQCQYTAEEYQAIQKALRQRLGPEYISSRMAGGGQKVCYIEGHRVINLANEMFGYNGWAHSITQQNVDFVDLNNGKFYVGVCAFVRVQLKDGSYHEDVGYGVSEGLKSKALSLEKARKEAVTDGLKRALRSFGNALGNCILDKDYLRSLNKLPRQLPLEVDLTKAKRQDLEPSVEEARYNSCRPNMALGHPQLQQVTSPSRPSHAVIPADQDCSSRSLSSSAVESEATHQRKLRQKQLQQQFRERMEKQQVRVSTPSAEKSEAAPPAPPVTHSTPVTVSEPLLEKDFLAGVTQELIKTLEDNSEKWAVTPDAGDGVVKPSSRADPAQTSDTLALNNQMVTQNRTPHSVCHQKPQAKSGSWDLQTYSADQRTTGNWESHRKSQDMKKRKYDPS

[8] = blockers of HIV-1 ZM109 envelope-driven cell-cell fusion – HeLa effector, CEM target cells, luciferase, cherry-pick, dose response (AID 652058); format: functional, cell-based;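 further: luciferase signal from HIV-1 Env mediated cell-cell fusion of effector and target cells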
[9] = HIV-1 AD8 envelope cell-cell fusion blockers – cherry-pick, dose response (AID 652062); format: functional, cell-based;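 further: luciferase signal from cell-cell fusion driven by HIV-1 clade B AD8 Env; potency is for inhibitors of fusion seen as a drop in luminescence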
[10] = target: T5, Sentrin-specific protease 1 (Homo sapiens, UniProt Q9P0U3); assay: SENP1 catalytic domain blockers, concentration series – biochemical, kinetic FRET, dose response (AID 651697); format: functional; conditions: read-out: IC50_Mean
T5 sequence (Q9P0U3 whole entry): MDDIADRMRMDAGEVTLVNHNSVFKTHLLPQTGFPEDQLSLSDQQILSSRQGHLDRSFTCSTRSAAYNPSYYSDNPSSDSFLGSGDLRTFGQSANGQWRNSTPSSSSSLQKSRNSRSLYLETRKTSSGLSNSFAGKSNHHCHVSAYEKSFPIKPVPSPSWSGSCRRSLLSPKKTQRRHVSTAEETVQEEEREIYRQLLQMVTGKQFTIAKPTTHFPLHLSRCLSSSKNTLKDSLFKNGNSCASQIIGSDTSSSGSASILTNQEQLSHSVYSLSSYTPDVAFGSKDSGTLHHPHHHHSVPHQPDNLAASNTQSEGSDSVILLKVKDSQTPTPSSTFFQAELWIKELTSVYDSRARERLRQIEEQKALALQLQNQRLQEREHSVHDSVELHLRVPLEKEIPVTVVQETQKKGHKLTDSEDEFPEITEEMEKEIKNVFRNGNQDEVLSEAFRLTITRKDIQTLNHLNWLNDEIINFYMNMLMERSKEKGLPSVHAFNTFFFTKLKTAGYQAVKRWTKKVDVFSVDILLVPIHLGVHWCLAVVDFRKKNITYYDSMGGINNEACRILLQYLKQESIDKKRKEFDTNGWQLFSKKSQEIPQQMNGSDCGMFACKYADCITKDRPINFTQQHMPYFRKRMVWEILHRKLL

[11] = target: T5, Sentrin-specific protease 1; assay: Dose response confirmation of small molecule inhibitors of the catalytic domain of the SUMO protease, SENP1 in a FRET assay.; format: functional; conditions: read-out: IC50_Mean
[12] = Counterscreen for inhibitors of Trypanosoma brucei methionyl tRNA synthetase (MetRS): Luminescence-based cell-based high throughput dose response assay to identify compounds that are cytotoxic to Jurkat human T lymphocyte cells.; format: functional
[13] = target: T6, Methionyl-tRNA synthetase, putative (Trypanosoma brucei brucei, UniProt Q38C91); format: functional, Trypanosoma brucei brucei strain 927/4 GUTat10.1
T6 sequence (Q38C91 whole entry): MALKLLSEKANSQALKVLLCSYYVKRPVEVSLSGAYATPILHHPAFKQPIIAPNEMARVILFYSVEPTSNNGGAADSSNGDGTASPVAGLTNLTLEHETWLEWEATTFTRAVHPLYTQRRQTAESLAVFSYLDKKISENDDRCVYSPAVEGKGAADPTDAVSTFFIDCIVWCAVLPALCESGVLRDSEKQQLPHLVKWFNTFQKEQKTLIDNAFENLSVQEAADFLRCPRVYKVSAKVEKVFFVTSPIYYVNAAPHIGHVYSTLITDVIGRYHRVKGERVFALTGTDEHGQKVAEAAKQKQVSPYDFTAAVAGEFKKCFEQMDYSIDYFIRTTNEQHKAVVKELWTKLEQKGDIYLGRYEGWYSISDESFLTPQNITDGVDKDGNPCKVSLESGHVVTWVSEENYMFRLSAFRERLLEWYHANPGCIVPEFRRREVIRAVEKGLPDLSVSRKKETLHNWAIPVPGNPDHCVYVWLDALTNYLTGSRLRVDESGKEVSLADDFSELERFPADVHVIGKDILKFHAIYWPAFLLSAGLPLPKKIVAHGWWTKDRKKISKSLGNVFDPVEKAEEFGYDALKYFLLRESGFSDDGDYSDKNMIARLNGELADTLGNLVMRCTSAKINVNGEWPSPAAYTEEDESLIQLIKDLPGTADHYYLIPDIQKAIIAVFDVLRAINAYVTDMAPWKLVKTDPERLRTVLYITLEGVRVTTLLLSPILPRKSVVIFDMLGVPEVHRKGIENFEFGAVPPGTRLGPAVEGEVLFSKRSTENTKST

[14] = cells; format: functional, cell-based
[15] = target: T7, Nuclear receptor subfamily 0 group B member 1 (Homo sapiens, UniProt P51843); format: functional, cell-based;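 further: HEK293T cells transfected with SF-1 and DAX-1 plus StAR promoter luciferase reporter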
T7 sequence (P51843 whole entry): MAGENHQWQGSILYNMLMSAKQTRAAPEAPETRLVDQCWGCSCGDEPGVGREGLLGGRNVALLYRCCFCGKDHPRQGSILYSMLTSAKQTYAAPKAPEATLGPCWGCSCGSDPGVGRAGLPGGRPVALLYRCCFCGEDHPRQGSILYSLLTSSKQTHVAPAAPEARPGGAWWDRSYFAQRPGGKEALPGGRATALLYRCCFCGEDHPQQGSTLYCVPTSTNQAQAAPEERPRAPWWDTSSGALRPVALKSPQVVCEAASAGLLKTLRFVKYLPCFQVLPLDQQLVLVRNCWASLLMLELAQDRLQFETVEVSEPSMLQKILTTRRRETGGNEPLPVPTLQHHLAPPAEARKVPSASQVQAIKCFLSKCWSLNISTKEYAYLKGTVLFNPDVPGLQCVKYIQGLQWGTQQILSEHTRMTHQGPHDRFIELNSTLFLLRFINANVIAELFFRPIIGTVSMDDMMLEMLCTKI

Structure (SMILES): COc1ccc(C(C(=O)NC(C)(C)C)n2c(=O)c(-c3ccco3)nc3ccccc32)cc1 (centres undefined)
- IC50 [1]: 1.78 µM (active)

Structure (SMILES): O=S(=O)(c1ccc(Cl)cc1)N1CCN(Cc2nc(O)c3ccc(Cl)cc3n2)CC1
- IC50 [2]: > 80 µM (inactive)

Structure (SMILES): O=C(O)c1ccc(Nc2nc3ccccc3nc2NS(=O)(=O)c2ccc(F)cc2)cc1
- AC50 [3]: > 100 µM (inactive)
- IC50 [4]: 24.9 µM (active)
- AC50 [5]: 62.1 µM (active)

Structure (SMILES): CC(=O)Nc1cc(-c2cccc(C(=O)NCCN(C)C)c2)cn2c(-c3ccccc3)cnc12
- AC50 [6]: 33.5 µM (active)
- AC50 [7]: 4.01 µM (active)

Structure (SMILES): Cc1cc(Nc2cccc(C(F)(F)F)c2)cc(=O)n1-c1cccc(C(F)(F)F)c1
- AC50 [8]: 1.85 µM (active)
- AC50 [9]: 9.49 µM (active)

Structure (SMILES): CC(C)Nc1ncnc2c1ncn2[C@H]1CN(Cc2ccc(Cl)cc2)C[C@@H](CO)O1
- IC50 [2]: > 80 µM (inactive)

Structure (SMILES): COc1cccc(-c2nc3nc(C)cc(C)n3c2Nc2c(C)cccc2C)c1
- IC50 [10]: 28.5 µM (inactive)
- IC50 [11]: 15.4 µM (active)

Structure (SMILES): COc1cc(OC)c(OC)cc1/C=N/Nc1nc2ccccc2[nH]1
- IC50 [12]: 83.3 µM (inactive)
- IC50 [13]: 119 µM (inactive)

Structure (SMILES): COC(=O)c1c(NC(=O)c2ccc(S(=O)(=O)N3CCOCC3)cc2)sc2c1CCN(C(C)C)C2
- AC50 [6]: 14.7 µM (active)

Structure (SMILES): CC(C)(C)OC(=O)N1CCC(C(=O)Nc2ccc3c(c2)CCC3)CC1
- IC50 [14]: > 67.5 µM (inactive)
- IC50 [15]: > 67.5 µM (inactive)

Structure (SMILES): CC(NC(=O)c1ccc2[nH]cnc2c1)c1ccccc1 (centres undefined)
- AC50 [5]: 22.7 µM (active)

Structure (SMILES): N#Cc1ccc(C(C(=O)NCc2ccccc2)n2c(=O)c(-c3ccco3)nc3ccccc32)cc1 (centres undefined)
- IC50 [1]: 1.3 µM (active)

Structure (SMILES): N#Cc1ccc(-c2nc3ccc(Br)cn3c2Cc2ccccc2C(F)(F)F)cc1
- IC50 [10]: 13.1 µM (active)
- IC50 [11]: 11.4 µM (active)

Structure (SMILES): O=C1C=C(c2ccc3ncccc3c2)C[C@@H](c2ccc(Cl)cc2)C1
- IC50 [2]: > 80 µM (inactive)

Structure (SMILES): CC(C)C(NC(=O)C(C(C)C)N(C)C)C(=O)N(C)C(C(=O)N1CCCC1C(=O)N1CCCC1C(=O)NCc1ccccc1)C(C)C (centres undefined) (ξNMe2Val-V[NMeV]PP-NHBn; configuration not given here)
- IC50 [14]: > 67.5 µM (inactive)
- IC50 [15]: > 67.5 µM (inactive)
